In ChEMBL document CHEMBL1201862, “PubChem BioAssay data set” (2004):
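Protocol summary: plate cells (96-well), add compound at 5 concentrations, incubate 48 h, interpolate endpoints linearly. GI50 is the concentration that inhibits growth by half.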 The source made the active and inactive calls. Rule as the data show it: active = GI50 up to about 1.1 µM and inactive = higher.

How the values were obtained:
Test in all cases: growth of human tumour cells (NCI), 48 h
SF-539 = system: SF-539
OVCAR-4 = system: OVCAR-4
HOP-62 = system: HOP-62
NCI/ADR-RES = system: NCI/ADR-RES
BT-549 = system: BT-549
SN12C = system: SN12C
HOP-92 = system: HOP-92
MOLT-4 = system: MOLT-4
NCI-H226 = system: NCI-H226
ACHN = system: ACHN
SK-MEL-28 = system: SK-MEL-28
MDA-MB-231 = system: MDA-MB-231
K562 = system: K562
NCI-H460 = system: NCI-H460
A549 = system: A549
HL-60 = system: HL-60
HCT-116 = system: HCT-116
SNB-75 = system: SNB-75
Hs-578T = system: Hs-578T
DU-145 = system: DU-145

SMILES	GI50 (SF-539)	GI50 (OVCAR-4)	GI50 (HOP-62)	GI50 (NCI/ADR-RES)	GI50 (BT-549)	GI50 (SN12C)	GI50 (HOP-92)	GI50 (MOLT-4)	GI50 (NCI-H226)	GI50 (ACHN)	GI50 (SK-MEL-28)	GI50 (MDA-MB-231)	GI50 (K562)	GI50 (NCI-H460)	GI50 (A549)	GI50 (HL-60)	GI50 (HCT-116)	GI50 (SNB-75)	GI50 (Hs-578T)	GI50 (DU-145)
Cc1cc(Nc2ccc(/N=N/c3ccc(O)c4ncccc34)cc2)nc(C)n1	3.99 µM (inactive)	18 µM (inactive)	15.9 µM (inactive)	6.28 µM (inactive)	16.4 µM (inactive)	10.4 µM (inactive)	9.75 µM (inactive)	3.93 µM (inactive)	18.3 µM (inactive)	8.22 µM (inactive)	11.2 µM (inactive)	24.9 µM (inactive)	3.78 µM (inactive)	6.93 µM (inactive)	9.82 µM (inactive)	3.97 µM (inactive)	8.93 µM (inactive)	9.35 µM (inactive)	7.03 µM (inactive)	18.2 µM (inactive)
COC(=O)C1C2OC(C)(C)OC2CN1S(=O)(=O)c1ccc(C)cc1 (stereo not given)	> 100 µM (inactive)	> 100 µM (inactive)	> 100 µM (inactive)	> 100 µM (inactive)	> 100 µM (inactive)	> 100 µM (inactive)	> 100 µM (inactive)	> 100 µM (inactive)	0.0527 µM (active)	> 100 µM (inactive)	> 100 µM (inactive)	> 100 µM (inactive)	> 100 µM (inactive)	> 100 µM (inactive)	> 100 µM (inactive)	> 100 µM (inactive)	> 100 µM (inactive)	10.9 µM (inactive)	> 100 µM (inactive)	> 100 µM (inactive)
CC1=CCCC2C1(C)CCC(C)C2(C)Cc1cc(O)ccc1O (stereo not given)	8.34 µM (inactive)	10.8 µM (inactive)	13.5 µM (inactive)	5.21 µM (inactive)	5.22 µM (inactive)	8.3 µM (inactive)	5.79 µM (inactive)	2.43 µM (inactive)	9.29 µM (inactive)	11.9 µM (inactive)	14.1 µM (inactive)	12.9 µM (inactive)	4.81 µM (inactive)	5.69 µM (inactive)	5.62 µM (inactive)	1.22 µM (inactive)	4 µM (inactive)	7.66 µM (inactive)	6.19 µM (inactive)	15 µM (inactive)
CC1CC[C@@]2(OC1)OC1C[C@H]3[C@@H]4CC=C5CC(OC6OC(CO)C(OC7OC(CO)C(O)C(OC8OCC(O)C(O)C8O)C7OC7OC(CO)C(O)C(O)C7O)C(O)C6O)CCC5(C)[C@H]4CCC3(C)C1[C@@H]2C (stereo not given in full)	3.6 µM (inactive)	6.58 µM (inactive)	4.09 µM (inactive)	5.97 µM (inactive)	4.38 µM (inactive)	4.58 µM (inactive)	> 25 µM (inactive)	9.18 µM (inactive)	13.3 µM (inactive)	4.97 µM (inactive)	12.3 µM (inactive)	4.66 µM (inactive)	7.23 µM (inactive)	5.52 µM (inactive)	4.38 µM (inactive)	4.9 µM (inactive)	4.44 µM (inactive)	7.69 µM (inactive)	4.66 µM (inactive)	4.86 µM (inactive)
c1cc2c(cc1NC1=NCCO1)CCCC2	2.74 µM (inactive)	10.7 µM (inactive)	2.67 µM (inactive)	2.18 µM (inactive)	13.7 µM (inactive)	3.56 µM (inactive)	2.86 µM (inactive)	2.65 µM (inactive)	3.37 µM (inactive)	7.59 µM (inactive)	5.19 µM (inactive)	2.16 µM (inactive)	2.45 µM (inactive)	3.3 µM (inactive)	4.8 µM (inactive)	2.66 µM (inactive)	2.76 µM (inactive)	2.08 µM (inactive)	4.6 µM (inactive)	5.08 µM (inactive)
CCCCn1c(C)c2c(c1C)C(=O)N(CC(O)CN1CCc3ccccc3C1)C2=O (stereo not given)	69.8 µM (inactive)	56.9 µM (inactive)	> 100 µM (inactive)	59.7 µM (inactive)	> 100 µM (inactive)	90.4 µM (inactive)	> 100 µM (inactive)	38.3 µM (inactive)	68.7 µM (inactive)	36.7 µM (inactive)	> 100 µM (inactive)	> 100 µM (inactive)	47.2 µM (inactive)	86.7 µM (inactive)	88.3 µM (inactive)	98.4 µM (inactive)	47.9 µM (inactive)	> 100 µM (inactive)	> 100 µM (inactive)	> 100 µM (inactive)
COc1cc2c(cc1OC)C(=O)/C(=C/c1cc(Cl)cc(Cl)c1)C2	2.49 µM (inactive)	17.1 µM (inactive)	9.35 µM (inactive)	1.76 µM (inactive)	7.26 µM (inactive)	5.93 µM (inactive)	18.7 µM (inactive)	5.08 µM (inactive)	3.87 µM (inactive)	7.91 µM (inactive)	61.7 µM (inactive)	11.3 µM (inactive)	0.859 µM (active)	4.73 µM (inactive)	12.1 µM (inactive)	1.35 µM (inactive)	3.58 µM (inactive)	1.86 µM (inactive)	11.3 µM (inactive)	10.6 µM (inactive)
COc1cc2c(cc1OC)CC(N=[N+]=[N-])c1cc(OC)c(OC)cc1/C=C\2 (stereo not given)	39.9 µM (inactive)	99.3 µM (inactive)	77.6 µM (inactive)	25.2 µM (inactive)	0.826 µM (active)	68.5 µM (inactive)	12.9 µM (inactive)	41 µM (inactive)	3.18 µM (inactive)	59 µM (inactive)	89.1 µM (inactive)	30.8 µM (inactive)	27.2 µM (inactive)	43.4 µM (inactive)	38.8 µM (inactive)	10 µM (inactive)	28.7 µM (inactive)	16.6 µM (inactive)	24 µM (inactive)	> 100 µM (inactive)
O=C(c1cccnc1)N1N=C(c2ccc3c(c2)OCO3)CC1(O)c1cc(F)c(Cl)cc1Cl (stereo not given)	16.7 µM (inactive)	22.4 µM (inactive)	18 µM (inactive)	18.5 µM (inactive)	20.9 µM (inactive)	18.5 µM (inactive)	20.7 µM (inactive)	15.3 µM (inactive)	16.2 µM (inactive)	17.7 µM (inactive)	25.5 µM (inactive)	17.3 µM (inactive)	27.9 µM (inactive)	17.4 µM (inactive)	28.6 µM (inactive)	20.2 µM (inactive)	16.3 µM (inactive)	15.2 µM (inactive)	33 µM (inactive)	20.9 µM (inactive)
C/C=C(\C)C(O)C(C)C(O)C/C=C(C)/C=C(\C)C/C(C)=C/C/C=C(\C)C(O)C(C)c1ccc(CCC)c(=O)o1 (stereo not given)	14.1 µM (inactive)	10 µM (inactive)	16.2 µM (inactive)	2.8 µM (inactive)	11.8 µM (inactive)	16.6 µM (inactive)	16.6 µM (inactive)	20 µM (inactive)	21.1 µM (inactive)	< 0.01 µM (active)	17.1 µM (inactive)	13.2 µM (inactive)	0.501 µM (active)	5.18 µM (inactive)	3.57 µM (inactive)	> 100 µM (inactive)	0.544 µM (active)	10.8 µM (inactive)	14.5 µM (inactive)	< 0.01 µM (active)
